In patent KR20230003036A, “렌바티닙 메실레이트의 결정형 xi 및 이의 제조방법” (청두 이스턴 바이오파마슈티컬 컴퍼니 리미티드, priority 2020, dated 2021):

Tests used:
[1] = Dissolution experiment of crystalline form XI capsules (paddle method, pH 4.0 medium); format: physicochemical; conditions: capsules of form XI (Example 12), 900ml, 37℃, 75r/min, UV 250nm
[2] = Hygroscopicity experiment of crystalline form XI (DVS, dynamic vapour sorption); format: physicochemical; conditions: 25℃, sample of Example 1
[3] = in vivo; conditions: rat, po, 1.25 mg/kg
[4] = Crystal form stability under storage conditions (XRD, day 0 vs day 30); format: physicochemical; conditions: storage conditions of Table 3 (high temperature 60℃, high humidity 92.5%, high humidity 75%, light irradiation), sample of Example 11
[5] = Impurity stability under storage conditions (HPLC purity after 30 days); format: physicochemical; conditions: high temperature 60℃, high humidity 92.5%, high humidity 75% and light irradiation, sample of Example 11
[6] = Powder flowability experiment (tap density, compression coefficient); format: physicochemical

| SMILES | time at which dissolution is basically complete [1] [min] | weight loss ([2]; relative humidity 0~40%) [%] | weight gain by moisture absorption ([2]; relative humidity 40~80%) [%] | AUC(0-t) at 24 h [3] [ng·h/mL] | Cmax [3] [ng/mL] | Tmax [3] [h] | change of crystal form (XRD pattern) [4] | change of purity (HPLC) [5] | flowability (comparison) ([6]; form XI (Example 12) vs form C (made according to CN100569753C)) | compression coefficient (comparison) ([6]; compression coefficient (%) = 100% (tap density - bulk density)/tap density, form C (made according to CN100569753C) vs form XI (Example 12)) |
| --- | --- | --- | --- | --- | --- | --- | --- | --- | --- | --- |
| COc1cc2nccc(Oc3ccc(NC(=O)NC4CC4)c(Cl)c3)c2cc1C(N)=O [결정형 XI, 렌바티닙 메실레이트, 메실레이트 이수화물] | ~120 | ~0.33 | ~0.25 | 22900 ± 2840 | 2290 ± 216 | 4 ± 1.73 | 결정형 변화가 없었다 | 큰 변화가 없었다 | 결정형 C의 유동성보다 훨씬 우수하며 | – |
| COc1cc2nccc(Oc3ccc(NC(=O)NC4CC4)c(Cl)c3)c2cc1C(N)=O [결정형 C, 렌바티닙 메실레이트] | – | – | – | – | – | – | – | – | – | 결정형 XI의 압축 계수보다 훨씬 더 높으며 |
